# Data: patent US5968751A, “Method for detecting the presence of protein C antibody in a fluid sample” (The Scripps Research Institute, priority 1997, dated 1999)
# No end group written: not given here.
# Experiments:
# APC [1] = target: T1, APC (Homo sapiens, UniProt P04070); experiment: amidolytic activity of APC towards S-2366; assay type: biochemical; design: Protein C consists of a 155 amino acid residue light chain and a 262 amino acid residue heavy chain; from tissue; host or cells: human plasma factor IX concentrate; conditions: for Change in A405 /5 minutes: 10 nM APC, 250 μM PC311-325, 500 μM PC142-155, 30 minutes at 37° C., S-2366
# Method: The amidolytic activity of APC toward the peptide substrate S-2366 was measured in the presence of various PC synthetic peptides derived from both the heavy and light chain, prepared in Example 1. For the assay, 100 μl of 10 nM APC, prepared in Example 2c2), were admixed with separate aliquots of 250 μM of PC311-325 and 500 μM Df PC142-155 prepared in TBS-BSA at pH 7.4 containing 0.02% NaN3 and 2 mM CaCl2 to form APC-peptide admixtures. After maintenance of the admixtures for 30 minutes at 37° C., 50 μl of 2.4 mM S-2366 in the same buffer were admixed to initiate the amidolytic reaction. The hydrolysis of the substrate was monitored by the change in absorbance at 405 nm at 37° C. over time using an EL312 Microplate Bio-Kinetics Reader (BIO-TEK Instruments, Inc. Vermont.). All data are mean values of duplicate measurements.
# The amidolytic activity of APC toward the peptide substrate S-2366 was measured in the presence of anti-PC317-331 antibody. For the assay, 100 μl of 15 nM APC, prepared in Example 2c2), were admixed with separate aliquots of anti-PC317-331 antibody ranging in concentration from […] prepared in TBS-BSA at pH 7.4 containing 0.02% NaN3 and 2 mM CaCl2 to form APC-anti-PC317-331 antibody immunoreaction admixtures. After maintenance of the admixtures for 30 minutes at 37° C. to allow formation of immunoreaction products, 50 μl of 2.4 mM S-2366 in the same buffer was admixed to initiate the amidolytic reaction. The hydrolysis of the substrate was monitored by the change in absorbance at 405 nm over time using an EL312 Microplate Bio-Kinetics Reader (BIO-TEK Instruments, Inc. Vermont.).
# Target sequence in this assay (P04070 43-197 limits assumed): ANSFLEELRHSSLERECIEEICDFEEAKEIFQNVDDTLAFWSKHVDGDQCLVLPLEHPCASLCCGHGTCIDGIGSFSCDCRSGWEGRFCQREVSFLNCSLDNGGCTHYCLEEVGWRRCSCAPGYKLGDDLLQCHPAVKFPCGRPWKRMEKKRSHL
# Target sequence in this assay (P04070 212-450 limits assumed): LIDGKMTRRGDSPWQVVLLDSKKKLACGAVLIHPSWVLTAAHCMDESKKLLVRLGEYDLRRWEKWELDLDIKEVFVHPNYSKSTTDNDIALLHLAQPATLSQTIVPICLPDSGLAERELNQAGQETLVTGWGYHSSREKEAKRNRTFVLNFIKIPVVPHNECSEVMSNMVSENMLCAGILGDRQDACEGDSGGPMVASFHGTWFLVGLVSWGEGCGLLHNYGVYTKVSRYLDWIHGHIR
# APC [2] = target: T1, APC; experiment: APC-catalyzed inactivation of Factor Va, residual Va by prothrombinase assay; assay type: biochemical; design: Protein C consists of a 155 amino acid residue light chain and a 262 amino acid residue heavy chain; from tissue; Factor Va a gift (Tans and Rosing, Univ. of Limburg)
# Method: The APC catalyzed inactivation of Factor Va assays were performed in 96-well flat bottom ELISA plates (Stockwell Scientific, Walnut, Calif.). The reactions were performed either in the presence or absence of phospholipid vesicles to determine if either PC311-325 or PC142-155 inhibited APC anticoagulant activity by inhibiting the binding of APC or its substrate to phospholipids or if it was independent of phospholipid surfaces. This determination was relevant in light of reports that the assembly of APC with its substrates Va and VIIIa on the phospholipid surface appeared to be mediated mainly by the Gla-domain of APC in the presence of calcium which was crucial for exerting significant anticoagulant activity. [Sugo et al., J. Biol. Chem., 260:10453-10457 (1985); […] et al., J. Biol. Chem., 261:9684-9693 (1986); Solymoss et al., J. Biol. Chem., 263:14884-14890 (1988)]. For the preparation of phospholipid residues for use in the assay bovine brain phosphatidylserine in chloroform […]/methanol (CH3 OH) and soybean phosphatidylcholine (Type III-S, CCl4 solution) were purchased from Sigma and were reported to be at least 98% homogeneous (supplier's estimates). To prepare vesicles, phosphatidylserine was admixed with phosphatidylcholine (20% phosphatidylserine/80% phosphatidylcholine; M/M) and the organic solvent evaporated under a stream of nitrogen. The resultant phospholipid admixture was resuspended in 0.05 M TBS-Az at pH 7.4 as a 1.25 mM solution by vortexing. Single bilayer vesicles were obtained during sonication by direct probe (Heat-Systems-Ultrasonics, Inc., […] Sonicator) for 6×30 second bursts at 30 W in 2 minute intervals at 4° C. The reaction buffer consisted of 0.05 M Tris-HCl, at pH 7.4 containing 0.1 M NaCl, 0.02% NaN3, 0.5% BSA and 2.5 mM CaCl2. […] M/M) either at 22° C. (in the presence of phospholipids) or at 37° C. (in the absence of phospholipids). […] The monoclonal antibody C3 which specifically recognizes the light-chain of PC as well as APC was prepared as in Example 2. Factor Va (a gift from Drs. Tans and Rosing, Univ. of Limburg, the Netherlands) was first admixed with or without PC311-325 or PC142-155 and maintained for 20 minutes either at 22° C. or at 37° C. prior to admixture with APC. […] Factor Va was determined via its cofactor activity in the activation of prothrombin by Factor Xa. […] The molar concentration of Factor Xa was determined by active site titration as described by Chase et al., Biochem. Biophys. […]
# Target sequence in this assay (P12259 29-737 partner limits assumed): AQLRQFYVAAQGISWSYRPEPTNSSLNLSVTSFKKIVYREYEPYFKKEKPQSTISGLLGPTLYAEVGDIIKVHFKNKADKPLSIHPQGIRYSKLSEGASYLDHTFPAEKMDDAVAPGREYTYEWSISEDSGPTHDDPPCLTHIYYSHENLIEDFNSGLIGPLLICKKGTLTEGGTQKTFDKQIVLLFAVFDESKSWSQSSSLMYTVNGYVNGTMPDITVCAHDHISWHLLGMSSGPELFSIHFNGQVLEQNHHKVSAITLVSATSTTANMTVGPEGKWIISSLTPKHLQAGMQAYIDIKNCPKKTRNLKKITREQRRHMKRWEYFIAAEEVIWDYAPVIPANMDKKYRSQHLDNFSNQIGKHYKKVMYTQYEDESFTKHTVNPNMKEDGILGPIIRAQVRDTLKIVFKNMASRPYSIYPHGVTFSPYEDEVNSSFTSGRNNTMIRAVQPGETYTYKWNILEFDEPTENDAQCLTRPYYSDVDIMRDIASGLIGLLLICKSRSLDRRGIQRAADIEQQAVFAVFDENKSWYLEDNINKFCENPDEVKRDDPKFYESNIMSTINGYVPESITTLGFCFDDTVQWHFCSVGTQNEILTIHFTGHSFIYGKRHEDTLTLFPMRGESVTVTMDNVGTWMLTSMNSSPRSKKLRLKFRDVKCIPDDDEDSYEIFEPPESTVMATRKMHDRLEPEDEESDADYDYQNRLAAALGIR
# Target sequence in this assay (P12259 1574-2224 partner limits assumed): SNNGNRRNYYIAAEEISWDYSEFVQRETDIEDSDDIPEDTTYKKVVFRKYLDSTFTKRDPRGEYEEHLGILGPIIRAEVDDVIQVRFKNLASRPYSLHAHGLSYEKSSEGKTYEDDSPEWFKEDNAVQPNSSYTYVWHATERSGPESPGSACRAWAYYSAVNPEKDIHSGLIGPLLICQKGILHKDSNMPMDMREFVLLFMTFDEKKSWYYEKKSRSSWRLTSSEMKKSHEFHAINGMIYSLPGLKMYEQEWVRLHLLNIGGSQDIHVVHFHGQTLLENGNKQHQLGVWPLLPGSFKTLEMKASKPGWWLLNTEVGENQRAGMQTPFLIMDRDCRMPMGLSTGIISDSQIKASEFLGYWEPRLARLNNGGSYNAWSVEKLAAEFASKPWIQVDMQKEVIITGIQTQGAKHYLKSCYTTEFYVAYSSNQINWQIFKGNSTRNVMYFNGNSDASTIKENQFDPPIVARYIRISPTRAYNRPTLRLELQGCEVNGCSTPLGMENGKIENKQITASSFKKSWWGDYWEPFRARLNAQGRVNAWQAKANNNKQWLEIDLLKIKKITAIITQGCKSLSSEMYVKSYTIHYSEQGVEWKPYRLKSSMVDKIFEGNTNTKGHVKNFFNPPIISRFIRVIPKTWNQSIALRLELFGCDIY
# Target sequence in this assay (P04070 43-197 limits assumed): as the sequence (P04070 43-197 limits assumed) above
# Target sequence in this assay (P04070 212-450 limits assumed): as the sequence (P04070 212-450 limits assumed) above
Compound,Change in A405 /5 minutes (APC [1]),"effect on APC amidolytic activity towards S-2366 (APC [1]; up to 250 μM PC311-325 or 500 μM PC142-155, 30 min at 37° C.)","rate of Factor Va inactivation (%Vi /min) (APC [2]; absence of phospholipids, 5 nM APC, 40 nM Va, 50 μM PC311-325) [% Vi /min]","IC50 (APC [2]; presence of phospholipid vesicles, read-out: half-maximal inhibition of the APC-catalyzed inactivation of Factor Va) [µM]",inhibition at 50 µM (APC [2]; read-out: inhibition of APC activity) [%],"inhibition at 500 µM (APC [2]; absence of phospholipids, 500 μM PC142-155) [%]"
"KRNRTFVLNFIKIPV-NH2 [PC311-325, Lys-Arg-Asn-Arg-Thr-Phe-Val-Leu-Asn-Phe-Ile-Lys-Ile-Pro-Val]",0.342,no significant effect,0.5,6,87,–
"CSCC[C@H](NC(=O)[C@H](CCCNC(=N)N)NC(=O)[C@H](CCCCN)NC(=O)[C@H](Cc1c[nH]c2ccccc12)NC(=O)[C@@H]1CCCN1C(=O)[C@H](CCCNC(=N)N)NC(=O)CN)C(=O)N[C@@H](CCC(=O)O)C(=O)N[C@@H](CCCCN)C(=O)N[C@@H](CCCCN)C(=O)N[C@@H](CCCNC(=N)N)C(=O)N[C@@H](CO)C(=O)N[C@@H](Cc1c[nH]cn1)C(=O)N[C@@H](CC(C)C)C(=O)N[C@@H](CS)C(N)=O [PC142-155, Gly-Arg-Pro-Trp-Lys-Arg-Met-Glu-Lys-Lys-Arg-Ser-His-Leu]",–,–,–,–,–,87
"MHKLREGKWRPKSR [Scrambled peptide, reference compound]",0.364,–,–,–,–,–
